Results as given in EP2649983A1, “Compounds which inhibit neuronal exocytosis (II)” (Lipotec, S.A., priority 2012, dated 2013).
Residues, ends and D or L forms follow the SMILES beside them. No end group written: not given here. *: point of attachment. Palmitoyl = CCCCCCCCCCCCCCCC(=O)*; NHhexadecyl = CCCCCCCCCCCCCCCCN*; Myristoyl = CCCCCCCCCCCCCC(=O)*

Legend:
[1] = system: SNARE complex; assay: Inhibition of SNARE complex formation (competition versus SNAP-25), complex detected by ELISA; type: binding
Procedure: With the aim of determining the capacity of inhibition of the SNARE complex formation by the compounds of the invention, the competitive inhibition of the compounds compared to SNAP-25 was studied with regards to the formation of this complex. The proportion of SNARE complex formed was determined by the ELISA technique, using one of the proteins from the complex bound to GST. In a 96-well plate VAMP was immobilized (using a 0.037 µM solution) and subsequently the free spaces were blocked with BSA (3%). Parallel to this process, SNAP-25 bound to GST (0.0185 µM), syntaxin (0.037 µM) and a compound of the invention (2.5 mM and 0.5 mM compounds) were incubated for 1 hour. After incubation, the samples were transferred to the plate with immobilized VAMP and were incubated for 1 hour to allow the formation of the SNARE complex. Afterward, the plate was washed and the complex was detected by a primary antibody anti-GST (Antibody anti-GST epitope TAG, Fisher Cat. no:PA1-982A). The reading was carried out at a wavelength of 490 nm in a TECAN GENios spectrophotometric reader.
Table 4 showns the results of the competitive inhibition of the formation of the SNARE complex by the compounds of the invention versus SNAP-25. The percentage of inhibition of the formation of the complex is inversely proportional to the quantity of SNARE complex spectrophotometrically detected.

[2] = system: SNARE complex; assay: Inhibition of SNARE complex formation, complex detected by electrophoresis (SDS-PAGE); type: binding
Procedure: VAMP (6 µM), syntaxin (6 µM) and the compound of the invention (5 mM or 1 mM compounds) were incubated for 3 hours. Subsequently, SNAP-25 (0.6 µM) was added and the mixture was incubated for an additional 15 hours to allow the formation of the SNARE complex. After incubation, the loading buffer (Laemli Simple Buffer) was added and the mixture was analyzed by 10% acrylamide SDS-PAGE in gel. The amount of complex was determined by MediaCybernetics image analysis software Image-Pro Plus.
The percentage of inhibition of the formation of the complex is inversely proportional to the quantity of SNARE complex detected.

[3] = system: human neuroblastoma cell line; assay: Release of noradrenaline induced by TPA/ionomycin in a neuroblastoma cell line, quantified by ELISA; type: cell-based; conditions: 60 minutes pre-incubation, TPA/ION = 100.00
Procedure: The induction of the release of noradrenaline with TPA (12-O-tetradecanoylphorbol-13-acetate)/lonomycin enables direct measurement of neuronal exocytosis. For the study of the inhibitory effect of the compounds of the invention on the release of noradrenaline, cells of a human neuroblastoma cell line were pre-incubated (1x10^6 cells/well) for 60 minutes with the compound of the invention (1 µM, 10 µM, 100 µM, 500 µM or 1 mM compounds), and afterward the release of noradrenaline was induced. The release of the noradrenaline neurotransmitter was induced by an 8 minute pretreatment with a solution of 12-O-tetradecanoylphorbol-13-acetate (TPA) 100 nM, which mobilized the intracellular vesicles which contained the neurotransmitter; followed by a 5 minute incubation with TPA/lonomycin (100 nM/10 µM), which induced the release of the neurotransmitter contained in these vesicles. […] For this, absorbance at 405 nm was measured in Thermo Scientific Multiskan Ascent equipment.
The blocking of the SNARE complex by the compounds of the invention lead to an inhibition of neuronal exocytosis and therefore, a decrease in the levels of released noradrenaline (Table 6).

[4] = concentration of compound 2.5 mM
[5] = concentration of compound 0.5 mM

CCCCCCCCCCCCCCCCNC(=O)[C@H](CCSC)NC(=O)[C@H](Cc1c[nH]c2ccccc12)NC(=O)[C@H](CCCNC(=N)N)NC(=O)[C@H](CCCCN)NC(=O)[C@H](CC(C)C)NC(=O)[C@H](CC(=O)O)NC(=O)[C@H](CCC(=O)O)NC(C)=O [Ac-SEQ ID NO:14-NH-(CH2)15-CH3] (Ac-EDLKRWM-NHhexadecyl)
% inhibition formation SNARE complex [1, 4]: 35%

CCCCCCCCCCCCCC(=O)N[C@@H](CC(N)=O)C(=O)N[C@@H](Cc1c[nH]cn1)C(=O)N[C@@H](Cc1ccccc1)C(=O)N[C@@H](CC(C)C)C(=O)N[C@@H](CC(N)=O)C(=O)N[C@@H](Cc1c[nH]c2ccccc12)C(=O)N[C@@H](CCSC)C(N)=O [Myr-SEQ ID NO:15-NH2] (Myristoyl-NHFLNWM-NH2)
% inhibition formation SNARE complex ([2]; concentration of compound 1 mM): 23% | % inhibition formation SNARE complex ([2]; concentration of compound 5 mM): 76%

CCCCCCCCCCCCCCCC(=O)N[C@@H](CCC(=O)O)C(=O)N[C@@H](Cc1c[nH]cn1)C(=O)N[C@@H](CC(C)C)C(=O)N[C@@H](CCCCN)C(=O)N[C@@H](CCC(N)=O)C(=O)N[C@@H](Cc1c[nH]c2ccccc12)C(=O)N[C@@H](CCSC)C(N)=O [Palm-SEQ ID NO:1-NH2] (Palmitoyl-EHLKQWM-NH2)
% inhibition formation SNARE complex [1, 5]: 21% | % inhibition formation SNARE complex [1, 4]: 47%

CCCCCCCCCCCCCCCC(=O)N[C@@H](CCC(N)=O)C(=O)N[C@@H](Cc1c[nH]cn1)C(=O)N[C@@H](CC(C)C)C(=O)N[C@@H](Cc1c[nH]cn1)C(=O)N[C@@H](CC(N)=O)C(=O)N[C@H](C(=O)N[C@@H](CCSC)C(N)=O)C(C)C [Palm-SEQ ID NO:3-NH2] (Palmitoyl-QHLHNVM-NH2)
% inhibition formation SNARE complex [1, 4]: 51%

CCCCCCCCCCCCCCCC(=O)N[C@@H](CCC(=O)O)C(=O)N[C@@H](CC(=O)O)C(=O)N[C@@H](CC(C)C)C(=O)N[C@@H](CCCCN)C(=O)N[C@@H](CCCNC(=N)N)C(=O)N[C@@H](Cc1c[nH]c2ccccc12)C(=O)N[C@@H](CCSC)C(N)=O [Palm-SEQ ID NO:14-NH2] (Palmitoyl-EDLKRWM-NH2)
% inhibition formation SNARE complex ([2]; concentration of compound 5 mM): 93%

CCCCCCCCCCCCCCCC(=O)N[C@@H](CC(N)=O)C(=O)N[C@@H](Cc1c[nH]cn1)C(=O)N[C@@H](Cc1ccccc1)C(=O)N[C@@H](CC(C)C)C(=O)N[C@@H](CC(N)=O)C(=O)N[C@@H](Cc1c[nH]c2ccccc12)C(=O)N[C@@H](CCSC)C(N)=O [Palm-SEQ ID NO:15-NH2] (Palmitoyl-NHFLNWM-NH2)
% inhibition formation SNARE complex [1, 4]: 21% | % inhibition formation SNARE complex ([2]; concentration of compound 1 mM): 22% | % inhibition formation SNARE complex ([2]; concentration of compound 5 mM): 74%

CCCCCCCCCCCCCCCC(=O)N[C@@H](CC(=O)O)C(=O)N[C@@H](Cc1c[nH]cn1)C(=O)N[C@@H](Cc1ccccc1)C(=O)N[C@@H](CCC(N)=O)C(=O)N[C@@H](CCC(N)=O)C(=O)N[C@@H](CCCNC(=N)N)C(=O)N[C@@H](CCSC)C(N)=O [Palm-SEQ ID NO:24-NH2] (Palmitoyl-DHFQQRM-NH2)
% inhibition formation SNARE complex [1, 5]: 36% | % inhibition formation SNARE complex ([2]; concentration of compound 1 mM): 17% | % inhibition formation SNARE complex ([2]; concentration of compound 5 mM): 66%

CCCCCCCCCCCCCCCC(=O)N[C@@H](CC(=O)O)C(=O)N[C@@H](Cc1c[nH]cn1)C(=O)N[C@@H](Cc1ccccc1)C(=O)N[C@@H](CC(C)C)C(=O)N[C@@H](CC(=O)O)C(=O)N[C@@H](Cc1c[nH]c2ccccc12)C(=O)N[C@@H](CCSC)C(N)=O [Palm-SEQ ID NO:25-NH2] (Palmitoyl-DHFLDWM-NH2)
% inhibition formation SNARE complex [1, 4]: 53% | % inhibition formation SNARE complex ([2]; concentration of compound 1 mM): 36%

CCCCCCCCCCCCCCCC(=O)N[C@@H](CC(=O)O)C(=O)N[C@@H](Cc1c[nH]cn1)C(=O)N[C@@H](Cc1ccccc1)C(=O)N[C@@H](CC(C)C)C(=O)N[C@@H](CC(N)=O)C(=O)N[C@@H](Cc1c[nH]c2ccccc12)C(=O)N[C@@H](CCSC)C(N)=O [Palm-SEQ ID NO:34-NH2] (Palmitoyl-DHFLNWM-NH2)
% inhibition formation SNARE complex [1, 4]: 51%

Ac-DHFLDWM-NH2 [Ac-SEQ ID NO:25-NH2]
% RELEASED NORADRENALINE Average ([3]; 1 µM): 99.59% | % RELEASED NORADRENALINE Average ([3]; 10 µM): 94.48% | % RELEASED NORADRENALINE Average ([3]; 100 µM): 74.79% | % RELEASED NORADRENALINE Average ([3]; 500 µM): 48.07% | % RELEASED NORADRENALINE Average ([3]; 1000 µM): 41.05%

Ac-DHFQQRM-NH2 [Ac-SEQ ID NO:24-NH2]
% RELEASED NORADRENALINE Average ([3]; 1 µM): 90.63% | % RELEASED NORADRENALINE Average ([3]; 10 µM): 97.06% | % RELEASED NORADRENALINE Average ([3]; 100 µM): 88.95% | % RELEASED NORADRENALINE Average ([3]; 500 µM): 78.11% | % RELEASED NORADRENALINE Average ([3]; 1000 µM): 67.90%

Ac-EDLKRWM-NH2 [Ac-SEQ ID NO:14-NH2]
% RELEASED NORADRENALINE Average ([3]; 10 µM): 84.96% | % RELEASED NORADRENALINE Average ([3]; 100 µM): 85.97% | % RELEASED NORADRENALINE Average ([3]; 1000 µM): 45.78%

Ac-EHLKQWM [Ac-SEQ ID NO:1-OH]
% inhibition formation SNARE complex [1, 5]: 29%

Ac-EHLKQWM-NH2 [Ac-SEQ ID NO:1-NH2]
% RELEASED NORADRENALINE Average ([3]; 1 µM): 96.14% | % RELEASED NORADRENALINE Average ([3]; 10 µM): 93.07% | % RELEASED NORADRENALINE Average ([3]; 100 µM): 79.59% | % RELEASED NORADRENALINE Average ([3]; 500 µM): 49.08% | % RELEASED NORADRENALINE Average ([3]; 1000 µM): 42.48%

EHLKQWM-NH2 [H-SEQ ID NO:1-NH2]
% inhibition formation SNARE complex [1, 5]: 30% | % inhibition formation SNARE complex [1, 4]: 58%
